Laboratory results taken from US10047051B2, “Substituted pyridines and method of use” (AbbVie S.á{acute over (.)}r.l., priority 2015, dated 2018).

Biological target: ΔF508 CFTR (Homo sapiens, UniProt P13569, DEL508-508)
Assay: TECC assay, FRT-CFTR ΔF508 protocol
Assay type: cell-based
Details: FRT cells stably transfected with ΔF508 CFTR, 3 μM VX809 24 hours, increase in transepithelial conductance (Gt), high expression cells
Description: For ΔF508 recordings, Fischer Rat Thyroid (FRT) cells stably transfected with ΔF508 CFTR (cell line from Rosalind Franklin University of Medicine and Science, North Chicago, Ill.) are plated on Transwell® supports (Costar 6.5 mm diameter, 0.4 μm pore size Cat n#3378). The cells are grown for 8-10 days under liquid-liquid interface conditions prior to electrophysiological readings. The differentiated cells are treated with 3 μM VX809 (2626 South Loop West, Suite 225, Houston, Tex. 77054 USA, Cat n# S1565) to allow sufficient expression of properly folded CFTR protein on the membrane (24 hours basolateral treatment), prior to electrophysiological recordings. For electrophysiological recording, the FRT-ΔF508 cells are mounted in the TECC heating plate for electrophysiological measurement and kept at 37° C. The epithelia are bathed in HEPES buffered culturing medium without FBS on both the basolateral and apical sides. Apical amiloride is used to inhibit the endogenous ENaC currents while forkolin is applied on both apical and basolateral side to stimulate CFTR. After forskolin triggering, compounds are added on both sides to test their potential for increasing CFTR gating. Measurements are done during a 10 minute timeframe with recordings every 2 minutes. The increase in transepithelial conductance (Gt) is used as a measure for the increased CFTR activity, EC50 values can be generated by measuring impact of different concentrations of compound on Gt of the cells, for this purpose each transwell is treated with a different compound concentration. Inh-172, an inhibitor specific for CFTR, is used to test the specificity of the tested compounds.

Sequence of ΔF508 CFTR (P13569 with tags, fused parts or gaps DEL508-508): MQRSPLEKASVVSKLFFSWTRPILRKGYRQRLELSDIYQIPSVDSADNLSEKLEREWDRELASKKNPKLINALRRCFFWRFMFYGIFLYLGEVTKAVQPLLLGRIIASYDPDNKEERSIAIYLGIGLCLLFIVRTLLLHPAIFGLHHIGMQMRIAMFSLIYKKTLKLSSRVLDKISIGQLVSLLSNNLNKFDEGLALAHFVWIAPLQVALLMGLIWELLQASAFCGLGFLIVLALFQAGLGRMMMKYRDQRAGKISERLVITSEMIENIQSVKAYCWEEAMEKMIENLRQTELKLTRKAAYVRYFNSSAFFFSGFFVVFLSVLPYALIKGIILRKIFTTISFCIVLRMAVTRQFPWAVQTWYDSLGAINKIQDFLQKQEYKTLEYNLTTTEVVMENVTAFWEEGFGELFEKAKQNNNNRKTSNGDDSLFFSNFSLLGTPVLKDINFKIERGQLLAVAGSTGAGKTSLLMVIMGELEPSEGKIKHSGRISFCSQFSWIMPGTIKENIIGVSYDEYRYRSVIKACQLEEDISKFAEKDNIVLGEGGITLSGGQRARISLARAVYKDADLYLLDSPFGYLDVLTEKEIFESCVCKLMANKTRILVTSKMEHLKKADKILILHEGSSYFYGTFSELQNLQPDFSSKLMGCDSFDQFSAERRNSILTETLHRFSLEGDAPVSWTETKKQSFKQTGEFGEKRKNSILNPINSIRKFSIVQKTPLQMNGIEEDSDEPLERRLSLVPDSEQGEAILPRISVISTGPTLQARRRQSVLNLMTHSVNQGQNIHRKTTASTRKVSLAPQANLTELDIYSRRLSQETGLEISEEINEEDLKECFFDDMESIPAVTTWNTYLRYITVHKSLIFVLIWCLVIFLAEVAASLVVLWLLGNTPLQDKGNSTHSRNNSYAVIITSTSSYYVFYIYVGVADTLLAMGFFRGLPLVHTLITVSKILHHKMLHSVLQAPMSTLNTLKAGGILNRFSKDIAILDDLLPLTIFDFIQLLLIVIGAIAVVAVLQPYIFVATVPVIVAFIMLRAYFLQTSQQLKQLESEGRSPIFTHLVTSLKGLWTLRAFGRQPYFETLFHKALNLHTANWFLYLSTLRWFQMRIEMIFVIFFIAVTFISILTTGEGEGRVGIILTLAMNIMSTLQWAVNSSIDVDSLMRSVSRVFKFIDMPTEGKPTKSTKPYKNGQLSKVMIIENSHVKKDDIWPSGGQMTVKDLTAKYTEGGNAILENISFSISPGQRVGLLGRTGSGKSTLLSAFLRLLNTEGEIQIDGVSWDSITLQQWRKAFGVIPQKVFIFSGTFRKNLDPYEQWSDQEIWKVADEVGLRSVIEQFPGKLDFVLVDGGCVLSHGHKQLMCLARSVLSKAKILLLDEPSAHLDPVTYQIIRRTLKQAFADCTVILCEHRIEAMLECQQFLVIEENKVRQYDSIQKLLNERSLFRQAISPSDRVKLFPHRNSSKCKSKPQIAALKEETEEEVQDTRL

Work on `Nc1cc(S(=O)(=O)c2ccc(OC(F)(F)F)cc2)cnc1C(=O)NC[C@@H](O)C(F)(F)F` [Compound 37, 3-amino-N-[(2R)-3,3,3-trifluoro-2-hydroxypropyl]-5-{[4-(trifluoromethoxy)phenyl]sulfonyl}pyridine-2-carboxamide] yielded an EC50 of 10.4 nM.
`Nc1cc(S(=O)(=O)c2ccc(F)cc2)cnc1C(=O)NC[C@@H](O)C(F)(F)F` [Compound 36, 3-amino-5-[(4-fluorophenyl)sulfonyl]-N-[(2R)-3,3,3-trifluoro-2-hydroxypropyl]pyridine-2-carboxamide] showed an EC50 of 63.2 nM.
For `CC(C)(O)CNC(=O)c1ncc(S(=O)(=O)c2ccc(OC(F)(F)F)cc2)cc1N` [Compound 1, 3-amino-N-(2-hydroxy-2-methylpropyl)-5-{[4-(trifluoromethoxy)phenyl]sulfonyl}pyridine-2-carboxamide], the EC50 was 180 nM.
`CC(O)(CNC(=O)c1ncc(S(=O)(=O)c2ccc(OC(F)(F)F)cc2)cc1N)C(F)(F)F` (stereo not shown) [Compound 2, 3-amino-N-(3,3,3-trifluoro-2-hydroxy-2-methylpropyl)-5-{[4-(trifluoromethoxy)phenyl]sulfonyl}pyridine-2-carboxamide] was tested, and the EC50 was 70 nM.
